Values of other authors in paper PMC11876601 (Molecular Systems Biology, 2025).
Where two headings read alike, the source gives them in different places.

Experiments:
[1] = tested on: SYK; conditions: cited from earlier work
[2] = tested on: STK10; conditions: cited from earlier work
[3] = tested on: ACVR1B; set-up: method as in Klaeger et al. (2017); conditions: lysate 4 cell line mix (Colo205, K-562, MV-4-11, and SK-N-BE(2)), Kinobeads y, ref Klaeger et al. (2017); cited from earlier work
[4] = tested on: PLK4; conditions: cited from earlier work
[5] = tested on: RPS6KA1; set-up: method as in Klaeger et al. (2017); conditions: lysate 4 cell line mix (Colo205, K-562, MV-4-11, and SK-N-BE(2)), Kinobeads y, ref Klaeger et al. (2017); cited from earlier work
[6] = tested on: IRAK4; conditions: cited from earlier work
[7] = tested on: TGFBR1; set-up: method as in Klaeger et al. (2017); conditions: lysate 4 cell line mix (Colo205, K-562, MV-4-11, and SK-N-BE(2)), Kinobeads y, ref Klaeger et al. (2017); cited from earlier work
[8] = tested on: CAMK2G; conditions: cited from earlier work
[9] = tested on: SIK3; set-up: method as in Klaeger et al. (2017); conditions: lysate 4 cell line mix (Colo205, K-562, MV-4-11, and SK-N-BE(2)), Kinobeads y, ref Klaeger et al. (2017); cited from earlier work
[10] = tested on: MARK4; conditions: cited from earlier work
[11] = tested on: PKN2; conditions: cited from earlier work
[12] = tested on: MAPKAPK5; set-up: method as in Reinecke et al. (2023); conditions: MAPKAPK5, 5 cell line mix lysate, Kinobeads ε, ref Reinecke et al. (2023), cited from earlier work
[13] = tested on: CAMKK2; set-up: method as in Reinecke et al. (2023); conditions: CAMKK2, 5 cell line mix lysate, Kinobeads ε, ref Reinecke et al. (2023), cited from earlier work
[14] = tested on: MARK2; conditions: MARK2, 5 cell line mix lysate, Kinobeads ε, ref Reinecke et al. (2023), cited from earlier work
[15] = tested on: YES1; set-up: method as in Reinecke et al. (2023); conditions: YES1, 5 cell line mix lysate, Kinobeads ε, ref Reinecke et al. (2023), cited from earlier work
[16] = 4 cell line mix lysate, Kinobeads y, ref Klaeger et al. (2017)
[17] = 5 cell line mix lysate, Kinobeads ε, ref Reinecke et al. (2023), read-out: KDapp
[18] = 5 cell line mix lysate, Kinobeads ε, ref Reinecke et al. (2023)
[19] = STK10, 5 cell line mix lysate, Kinobeads ε, ref Reinecke et al. (2023)
[20] = PLK4, 5 cell line mix lysate, Kinobeads ε, ref Reinecke et al. (2023)
[21] = IRAK4, 5 cell line mix lysate, Kinobeads ε, ref Reinecke et al. (2023)
[22] = MARK4, 5 cell line mix lysate, Kinobeads ε, ref Reinecke et al. (2023)
[23] = PKN2, 5 cell line mix lysate, Kinobeads ε, ref Reinecke et al. (2023)

## C[C@]12O[C@H](C[C@]1(O)CO)n1c3ccccc3c3c4c(c5c6ccccc6n2c5c31)CNC4=O [Lestaurtinib]
[1]; [16]
  EC50: […]
[2]; STK10, 4 cell line mix lysate, Kinobeads y, ref Klaeger et al. (2017)
  EC50: […]
[3]
  EC50: […]
[4]; PLK4, 4 cell line mix lysate, Kinobeads y, ref Klaeger et al. (2017)
  EC50: […]
[5]
  EC50: 3.29 µM
[6]; IRAK4, 4 cell line mix lysate, Kinobeads y, ref Klaeger et al. (2017)
  EC50: […]
[7]
  EC50: […]
[8]; [16]
  EC50: […]
[9]
  EC50: 1.04 µM
[10]; MARK4, 4 cell line mix lysate, Kinobeads y, ref Klaeger et al. (2017)
  EC50: […]
[11]; PKN2, 4 cell line mix lysate, Kinobeads y, ref Klaeger et al. (2017)
  EC50: […]

## COc1cc(N2CCC(N3CCN(C)CC3)CC2)ccc1Nc1ncc(Cl)c(Nc2ccccc2P(C)(C)=O)n1 [Brigatinib]
[1]; [17]
  Kd: 1.57 µM
[1]; [18]
  EC50: 1.87 µM
  pKDapp: 5.81
[2]; [19]
  EC50: 0.31 µM
  pKDapp: 6.55
[2]; STK10, 5 cell line mix lysate, Kinobeads ε, ref Reinecke et al. (2023), read-out: KDapp
  Kd: 0.283 µM
[4]; [20]
  EC50: 0.0952 µM
  pKDapp: 7.31
[4]; PLK4, 5 cell line mix lysate, Kinobeads ε, ref Reinecke et al. (2023), read-out: KDapp
  Kd: 0.0485 µM
[12]
  EC50: 0.0627 µM
  pKDapp: 7.23
[12]; read-out: KDapp
  Kd: 0.0583 µM
[6]; [21]
  EC50: 0.492 µM
  pKDapp: 6.42
[6]; IRAK4, 5 cell line mix lysate, Kinobeads ε, ref Reinecke et al. (2023), read-out: KDapp
  Kd: 0.381 µM
[8]; [17]
  Kd: 0.0932 µM
[8]; [18]
  EC50: 0.429 µM
  pKDapp: 7.03
[10]; [22]
  EC50: 0.232 µM
  pKDapp: 6.71
[10]; MARK4, 5 cell line mix lysate, Kinobeads ε, ref Reinecke et al. (2023), read-out: KDapp
  Kd: 0.193 µM
[11]; [23]
  EC50: 1.04 µM
  pKDapp: 6.07
[11]; PKN2, 5 cell line mix lysate, Kinobeads ε, ref Reinecke et al. (2023), read-out: KDapp
  Kd: 0.852 µM
[13]
  EC50: 0.0609 µM
  pKDapp: 7.39
[13]; read-out: KDapp
  Kd: 0.0404 µM
[14]
  EC50: 0.247 µM
  pKDapp: 6.73
[14]; read-out: KDapp
  Kd: 0.186 µM
[15]
  EC50: 0.821 µM
  pKDapp: 6.47
[15]; read-out: KDapp
  Kd: 0.339 µM
